As a reminder, the inhibition is the percentage by which the read-out fell short of the control. For orientation: IC50 means the concentration that gives 50% inhibition.

9 compounds from patent US20250091994A1, “RAS/RAF BINDING INHIBITOR COMPOUND” (NATIONAL UNIVERSITY CORPORATION KOBE UNIVERSITY, priority 2021, published 2025) can be followed below.

Experiment [1] deals with acute lymphoblastic leukemia cells MOLT4 (N-RasG12C). The experiment in a line: Cell growth inhibition, suspension cells MOLT4. The experiment is classed as cell-based. Conditions: Homo sapiens, MOLT-4, 72 hours; for inhibition at 10 µM: read-out: MOLT-4 (NRasG12C) % inhibition at 10 μM (**). As for the experimental part: (§1) The cell growth inhibitory activity of the compound of the present invention on human culture cells having active-type mutation in Ras was evaluated by the below-mentioned method using suspension cancer cells {acute lymphoblastic leukemia cells CCRF-CEM (K-RasG12D), promyelocytic leukemia cells HL60 (N-RasQ61L), acute lymphoblastic leukemia cells MOLT4 (N-RasG12C), and small cell lung cancer cells SHP77 (K-RasG12V)} and adherent cancer cells {large bowel cancer cells SW480 (K-RasG12V) and large bowel cancer cell SW620 (K-RasG12V)}.
(§2) (Case of suspension cells) The cells suspended in a medium containing 0.5% (v/v) fetal bovine serum (FBS) and each compound solution (final DMSO concentration: 1%) were seeded on a 96-well plate (2 to 4×10^4 cells/well), and the resulting mixture was then cultured at 37° C. in the presence of 5% CO2 for 72 hours.
(§3) Thereafter, the number of viable cells was measured using Cell Counting Reagent (Nacalai Tesque) in accordance with the manufacturer's instructions. Inhibition by the test compound was determined according to the following equation: […]

For experiment [2], the target named is GTPγS-bound human HRasG12V / human c-Raf-1 Ras binding domain (RBD) (Homo sapiens (Human), UniProt P01112, G12V). Description: Ras-Raf binding inhibition ELISA. Conditions: for IC50: anti-HRas antibody C-20, read-out: ELISA IC50 (μM): 1st Ab_C-20. In outline:
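GST-c-Raf-1 RBD (aa 50-131) immobilized on glutathione plates, then GTPγS-loaded full-length HRasG12V added with compound (final 10% DMSO), 1 h at 30 °C, pH 7.4 Tris buffer. Bound Ras detected by anti-HRas antibody (C-20 or 259) and HRP secondary, TMB read at OD450; IC50 from inhibition.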
In general terms: An ELISA detects its analyte on a solid surface through an enzyme-linked reagent.

For experiment [3], the system named is acute lymphoblastic leukemia cells CCRF-CEM (K-RasG12D). The experiment in a line: Cell growth inhibition, suspension cells CCRF-CEM. The experiment is classed as cell-based. The settings on record: Homo sapiens, 1 μM, 72 hours, read-out: CCRF-CEM (KRasG12D) % inhibition at 1 μM. As for the experimental part: as §1, §2, §3
Experiment [4] relates to small cell lung cancer cells SHP77 (K-RasG12V). The experiment in a line: Cell growth inhibition, suspension cells SHP77. In kind it is cell-based. Conditions: Homo sapiens, 72 hours; for inhibition at 3.2 µM: read-out: SHP77 (KRasG12V) % inhibition at 3.2 μM (**). The protocol:
as §1, §2, §3

Experiment [5] concerns large bowel cancer cell SW620 (K-RasG12V). The experiment in a line: Cell growth inhibition, adherent cells SW620. In kind it is cell-based. Conditions: Homo sapiens, SW-620, 72 hours; for inhibition at 3.2 µM: read-out: SW620 (KRasG12V) % inhibition at 3.2 μM (***). A digest of the protocol:
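Adherent cells, 1 to 2×10^4 per well, grown overnight in 10% FBS, then exposed to compound in low-serum medium […] for 72 h at 37° C. Viable cells counted with Cell Counting Reagent; inhibition calculated relative to controls.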

GTPγS-bound human HRasG12V / human c-Raf-1 Ras binding domain (RBD), sequence (P01112 whole entry G12V, the tested form may be a part): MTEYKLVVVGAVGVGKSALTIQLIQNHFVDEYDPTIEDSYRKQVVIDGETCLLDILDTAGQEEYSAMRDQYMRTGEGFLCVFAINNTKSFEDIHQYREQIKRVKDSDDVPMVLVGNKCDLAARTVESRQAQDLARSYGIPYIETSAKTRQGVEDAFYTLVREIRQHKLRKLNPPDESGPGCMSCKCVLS

As to `CC(=O)N1C(=Cc2ccc(OCC(=O)N3CCOCC3)c(F)c2)C(=O)c2ccccc21` (racemic) [Example 16, 1-acetyl-2-(3-fluoro-4-(2-morpholino-2-oxoethoxy)-benzylidene)-indolin-3-one], the inhibition at 10 µM in experiment [1] amounted to 100%. For the same compound, in experiment [2], the IC50 was 7.6 µM. Also, the inhibition at 1 µM in experiment [3] was found to be 56%.

`CC(=O)N1C(=Cc2cc(F)c(OCC(=O)N3CCOCC3)c(F)c2)C(=O)c2ccccc21` (racemic) [Example 19, 1-acetyl-2-(3,5-difluoro-4-(2-morpholino-2-oxoethoxy)-benzylidene)-indolin-3-one]: the inhibition at 10 µM in experiment [1] came out at 100%. The IC50 in experiment [2] came to 5.8 µM. Moreover, in experiment [3], the inhibition at 1 µM was found to be 83%.

For the compound `COCCOc1ccc(/C=C2/C(=O)c3ccccc3N2C(C)=O)cc1OC` [Example 11, 1-acetyl-2-(3-methoxy-4-(2-methoxyethoxy)-benzylidene)-indolin-3-one], the inhibition at 10 µM is 100% in experiment [1] and 54% in experiment [2]. Further, the inhibition at 1 µM in experiment [3] came out at 55%.

With `CCOc1cc(/C=C2/C(=O)c3ccccc3N2C(C)=O)ccc1OCC(N)=O` [Example 13, 2-(4-((1-acetyl-3-oxoindolin-2-ylidene)methyl)-2-ethoxyphenoxy)-acetamide], the inhibition at 10 µM in experiment [1] amounted to 100%. For the same compound, the inhibition at 1 µM in experiment [3] is 33%.

For `COc1cc(/C=C2/C(=O)c3ccccc3N2C(C)=O)ccc1OCS(C)(=O)=O` [Example 24, 1-acetyl-2-(3-methoxy-4-((methylsulfon-yl)methoxy)-benzylidene)-indolin-3-one], the inhibition at 1 µM in experiment [1] (1 μM, read-out: MOLT-4 (NRasG12C) % inhibition at 1 μM) stood at 54%; in experiment [3], 88%.

Take `CC(=O)N1CCc2cc(-c3cc(/C=C4/C(=O)c5ccccc5N4C(C)=O)nc4ccccc34)ccc2C1` [Example 187, (Z)-1-acetyl-2-((4-(2-acetyl-1,2,3,4-tetra-hydroisoquinolin-6-yl)-quinolin-2-yl)methylene)-indolin-3-one]: the inhibition at 1 µM in experiment [2] is 66.7%; in experiment [4] (1 μM, read-out: SHP77 (KRasG12V) % inhibition at 1 μM), 66.8%; in experiment [5] (1 μM, read-out: SW620 (KRasG12V) % inhibition at 1 μM), 39.3%.

In experiment [2], `CC(=O)N1CCc2c(cccc2-c2cc(/C=C3/C(=O)c4ccccc4N3C(C)=O)nc3ccccc23)C1` [Example 193, (Z)-1-acetyl-2-((4-(2-acetyl-1,2,3,4-tetra-hydroisoquinolin-5-yl)quinolin-2-yl)methylene)-indolin-3-one] had an inhibition at 1 µM of 60.4%. The results for the inhibition at 3.2 µM in experiment [4] and in experiment [5] were 98.1% and 96.1%, respectively.

As for `CC(=O)N1/C(=C\c2ccc3c(-c4cccc5ccccc45)c(C(=O)N4CCOCC4)ccc3n2)C(=O)c2ccccc21` [Example 195, (Z)-1-acetyl-2-((6-(morpholine-4-carbonyl)-5-(naphthalen-1-yl)-quinolin-2-yl)-methylene)indolin-3-one], in experiment [2], the inhibition at 1 µM amounted to 55.7% and the IC50 came to 0.9 µM. In addition, the inhibition at 3.2 µM in experiment [4] came to 96.4%. In addition, in experiment [5], the inhibition at 3.2 µM worked out at 95.4%.

On to `CC(=O)N1/C(=C\c2ccc3cc(C(=O)N4CCOCC4)cc(-c4cccc5ccccc45)c3n2)C(=O)c2ccccc21` [Example 197, 1-acetyl-2-((6-(morpholine-4-carbonyl)-8-(naphthalen-1-yl)-quinolin-2-yl)-methylene)indolin-3-one], for which, in experiment [2], the inhibition at 10 µM turned out to be 35.3%. For the same compound, the figures for the inhibition at 3.2 µM in experiment [4] and in experiment [5] were 65.7% and 35.5%, respectively.
